Source: patent US20100190809A1, “COMBINATION FORMULATIONS” (priority 2007, published 2010)

Test: Tablet dissolution in 0.01M HCl+1% sodium laurylsulfate, 50 rpm
Type: physicochemical
Protocol: The tablets were measured on dissolution in a medium of 0.01M HCl+1% sodium laurylsulfate (SLS), 50 rpm. The results reported in the following tables are the percentages of release drug substance. Exp 1, exp 2, etc. refer to a first, a second, etc. experiment under the same conditions.
Two coating trials were performed using the tablet core samples with a compression force of 1030 daN and 1266 daN. The coating material was polyvinyl alcohol (PVA). The film coated tablets were measured on dissolution in medium 0.01 M HCl+1% SLS, 50 rpm.

Row | release out of the coated tablets compared to the cores (PVA film coated tablets) | influence of the compression force on dissolution (TMC125 compared with TMC114) | Compound | impact of the coating on the release (PVA film coated tablets)
1 |  |  | CC(C)CN(C[C@@H](O)[C@H](Cc1ccccc1)NC(=O)O[C@H]1CO[C@H]2OCC[C@H]21)S(=O)(=O)c1ccc(N)cc1 [TMC114, (1S,2R,3R,3aS,6aR)-{3-[(4-aminobenzenesulfonyl)isobutyl-amino]-1-benzyl-2-hydroxypropyl}carbamic acid hexahydrofuro[2,3-b]furan-3-yl ester monoethanolate] | only a minor impact
2 | somewhat faster | more influenced | Cc1cc(C#N)cc(C)c1Oc1nc(Nc2ccc(C#N)cc2)nc(N)c1Br [TMC125, 4-[[6-amino-5-bromo-2-[(4-cyanophenyl)amino]-4-pyrimidinyl]oxy]-3,5-dimethylbenzonitrile] | 
